# Test results taken from patent US8362249B2, “CXCR3 receptor antagonists” (Boehringer Ingelheim International GmbH, priority 2009, dated 2013).
# Target: CXCR3 (Macaca fascicularis, UniProt A0A2K5UV19)
# Assay: functional cellular assay measuring calcium flux in CXCR3 transfected cells (block of CXCR3/IP-10 interaction)
# Assay type: cell-based
# Settings: IP-10 induced intracellular calcium flux; Cyno-CHO cells stably expressing recombinant CXCR3 and G-alpha-16
# Procedure: Compounds are assessed for the ability to block the interaction of CXCR3 and IP-10 in a functional cellular assay measuring calcium flux in CXCR3 transfected cells.
# Cyno-CHO cells, stably expressing recombinant CXCR3 and G-alpha-16 are grown in F12 medium (Mediatech #45000-360) supplemented with 10% (V/V) FBS (Mediatech #35-01500), 1% Geneticin (Invitrogen #10131-027) and 0.2% Zeocin (Invitrogen #R250-05). The cells are spun down and re-suspended in growth media to a concentration of 4.8 E5 cells/mL. 25 microL of cell suspension is added to each well of a BD-384-well TC treated plate, providing 12,000 cells/well. The plate is incubated at 37° C./5% CO2 overnight. On the day of the assay, the plates are removed, the media is flicked out and 25 microL of Ca-4 dye in assay buffer (HBSS, 10 mM HEPES ph 7.4), containing 2 mM probenacid is added to each well. The cell assay plates are then incubated at 37° C./5% CO2 for one hour.
# Test compounds are dissolved in DMSO and diluted to 1.045 mM in DMSO. Just prior to assay, 2.75 microL of appropriately diluted test compound are added to each well of a 384 well plate containing 45 microL of HBSS buffer. After mixing, 5 microL of diluted compound are added to each well of the cell assay plate for a final assay concentration of 10 microM. The plate is incubated at room temperature for 15 min. 10 microL of IP-10 stock solution in HBSS (4× EC80 concentration) are added to each well of the cell assay plate except those cells reserved as blank wells containing buffer only. Intracellular calcium flux is recorded on the HAMAMTSU FDSS6000, using excitation at 480 nm and emission at 540 nm. Data are analyzed using Activity Base software.
# In general, the preferred potency range (IC50) of compounds in the above assay is between 1 nM to 3 μM, and the most preferred potency range is 1 nM to 20 nM.
# CXCR3, sequence (A0A2K5UV19 entry or part of it): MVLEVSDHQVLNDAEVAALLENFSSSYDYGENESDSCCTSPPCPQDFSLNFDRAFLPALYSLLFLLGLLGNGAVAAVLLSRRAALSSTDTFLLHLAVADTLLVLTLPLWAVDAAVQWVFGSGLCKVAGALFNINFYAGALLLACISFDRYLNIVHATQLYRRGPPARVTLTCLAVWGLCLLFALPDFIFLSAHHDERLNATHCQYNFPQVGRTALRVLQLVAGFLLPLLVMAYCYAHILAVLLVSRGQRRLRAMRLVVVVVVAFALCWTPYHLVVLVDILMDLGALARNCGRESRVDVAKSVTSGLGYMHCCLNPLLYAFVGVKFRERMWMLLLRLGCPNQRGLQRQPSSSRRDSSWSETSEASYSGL
row,SMILES,IC50
1,"Cc1nc(C)c(C(=O)NCC(=O)N2CCN(c3ccccc3C(=O)Nc3cccnc3)CC2)s1 [2,4-Dimethyl-thiazole-5-carboxylic acid (2-oxo-2-{4-[2-(pyridin-3-ylcarbamoyl)-phenyl]-piperazin-1-yl}-ethyl)-amide]",13.9 nM
2,"Cc1cc(C)n(CC(=O)N2CCN(c3ccccc3C(=O)Nc3cccc(OC(F)(F)F)c3)CC2)n1 [2-{4-[2-(3,5-Dimethyl-pyrazol-1-yl)-acetyl]-piperazin-1-yl}-N-(3-trifluoromethoxy-phenyl)-benzamide]",3.1 nM
3,"Cc1cn(CC(=O)N2CCN(c3ccccc3C(=O)Nc3ccccc3)CC2)c(C)n1 [2-{4-[2-(2,4-Dimethyl-imidazol-1-yl)-acetyl]-piperazin-1-yl}-N-phenyl-benzamide]",5 nM
4,"Cc1cc(C)n(CC(=O)N2CCN(c3ccccc3C(=O)Nc3cccc(S(=O)(=O)N(C)C)c3)CC2)n1 [2-{4-[2-(3,5-Dimethyl-pyrazol-1-yl)-acetyl]-piperazin-1-yl}-N-(3-dimethylsulfamoyl-phenyl)-benzamide]",17 nM
5,O=C(Nc1ccc(C(F)(F)F)nc1)c1ccccc1N1CCN(C(=O)CN2CCCCC2=O)CC1 [2-{4-[2-(2-Oxo-piperidin-1-yl)-acetyl]-piperazin-1-yl}-N-(6-trifluoromethyl-pyridin-3-yl)-benzamide],3 nM
6,"Cc1cc(C)n(CC(=O)N2CCN(c3ccccc3C(=O)Nc3cc(C(F)(F)F)no3)CC2)n1 [2-{4-[2-(3,5-Dimethyl-pyrazol-1-yl)-acetyl]-piperazin-1-yl}-N-(3-trifluoromethyl-isoxazol-5-yl)-benzamide]",5.1 nM
7,"Cc1cc(C)n(CC(=O)N2CCN(c3ccccc3C(=O)Nc3ccc(C(F)(F)F)cc3)CC2)n1 [2-{4-[2-(3,5-Dimethyl-pyrazol-1-yl)-acetyl]-piperazin-1-yl}-N-(4-trifluoromethyl-phenyl)-benzamide]",4.2 nM
8,"Cc1nc(CC(=O)N2CCN(c3ccccc3C(=O)Nc3ccncc3)CC2)c(C)s1 [2-{4-[2-(2,5-Dimethyl-thiazol-4-yl)-acetyl]-piperazin-1-yl}-N-pyridin-4-yl-benzamide]",7 nM
9,"COc1cccc(C(=O)N(C)CC(=O)N2CCN(c3ccccc3C(=O)Nc3ccncc3)CC2)c1OC [2,3-Dimethoxy-N-methyl-N-(2-oxo-2-{4-[2-(pyridin-4-ylcarbamoyl)-phenyl]-piperazin-1-yl}-ethyl)-benzamide]",15 nM
10,O=C(Nc1ccncc1)c1ccccc1N1CCN(C(=O)Cc2noc3ccccc23)CC1 [2-[4-(2-Benzo[d]isoxazol-3-yl-acetyl)-piperazin-1-yl]-N-pyridin-4-yl-benzamide],6.6 nM
11,"O=C(Nc1ccncc1)c1ccccc1N1CCN(C(=O)CN2CCc3cccnc32)CC1 [2-[4-(2-2,3-Dihydro-pyrrolo[2,3-b]pyridin-1-yl-acetyl)-piperazin-1-yl]-N-pyridin-4-yl-benzamide]",9 nM
12,"Cc1cc(C)n(CC(=O)N2CCN(c3ccccc3C(=O)Nc3cccc(C(F)(F)F)c3)CC2)n1 [2-{4-[2-(3,5-Dimethyl-pyrazol-1-yl)-acetyl]-piperazin-1-yl}-N-(3-trifluoromethyl-phenyl)-benzamide]",8 nM
13,"O=C(Nc1ccncc1)c1ccccc1N1CCN(C(=O)CN2C(=O)c3ccccc3C2=O)CC1 [2-{4-[2-(1,3-Dioxo-1,3-dihydro-isoindol-2-yl)-acetyl]-piperazin-1-yl}-N-pyridin-4-yl-benzamide]",6.1 nM
14,"Cc1cc(C)n(CC(=O)N2CCN(c3ccccc3C(=O)Nc3ccc4oc(C)nc4c3)CC2)n1 [2-{4-[2-(3,5-Dimethyl-pyrazol-1-yl)-acetyl]-piperazin-1-yl}-N-(2-methyl-benzooxazol-5-yl)-benzamide]",17.5 nM
15,O=C(NCC(=O)N1CCN(c2ccccc2C(=O)Nc2cccnc2)CC1)c1ccccc1 [2-[4-(2-Benzoylamino-acetyl)-piperazin-1-yl]-N-pyridin-3-yl-benzamide],7.6 nM
16,"Cc1cc(C)n(CC(=O)N2CCN(c3ccccc3C(=O)Nc3nc(-c4cccnc4)cs3)CC2)n1 [2-{4-[2-(3,5-Dimethyl-pyrazol-1-yl)-acetyl]-piperazin-1-yl}-N-(4-pyridin-3-yl-thiazol-2-yl)-benzamide]",20 nM

# The next lines start with the values.
row,IC50,SMILES
1,23 nM,"Cc1cc(C)n(CC(=O)N2CCN(c3ncc(Cl)cc3NC(=O)c3ccc(S(C)(=O)=O)cc3)CC2)n1 [N-(5-Chloro-2-{4-[2-(3,5-dimethyl-pyrazol-1-yl)-acetyl]-piperazin-1-yl}-pyridin-3-yl)-4-methanesulfonyl-benzamide]"
2,11.5 nM,"Cc1cc(C)n(CC(=O)N2CCN(c3ccccc3C(=O)Nc3ccc4ncccc4c3)CC2)n1 [2-{4-[2-(3,5-Dimethyl-pyrazol-1-yl)-acetyl]-piperazin-1-yl}-N-quinolin-6-yl-benzamide]"
3,8.9 nM,"Cc1cc(C)n(CC(=O)N2CCN(c3ccccc3C(=O)Nc3cc(C(C)(C)C)no3)CC2)n1 [N-(3-tert-Butyl-isoxazol-5-yl)-2-{4-[2-(3,5-dimethyl-pyrazol-1-yl)-acetyl]-piperazin-1-yl}-benzamide]"
4,3.4 nM,O=C(Nc1ccncc1)c1ccccc1N1CCN(C(=O)Cn2cnc3ccccc3c2=O)CC1 [2-{4-[2-(4-Oxo-4H-quinazolin-3-yl)-acetyl]-piperazin-1-yl}-N-pyridin-4-yl-benzamide]
5,5.9 nM,"Cc1cc(C)n(CC(=O)N2CCN(c3ccccc3C(=O)Nc3nc4ccccc4s3)CC2)n1 [N-Benzothiazol-2-yl-2-{4-[2-(3,5-dimethyl-pyrazol-1-yl)-acetyl]-piperazin-1-yl}-benzamide]"
6,7.4 nM,"CS(=O)(=O)c1ccc(NC(=O)c2ccccc2N2CCN(C(=O)Cn3ccc4cccnc43)CC2)cc1 [N-(4-Methanesulfonyl-phenyl)-2-[4-(2-pyrrolo[2,3-b]pyridin-1-yl-acetyl)-piperazin-1-yl]-benzamide]"
7,15 nM,"Cc1cc(C)n(CC(=O)N2CCCN(c3ncc(Cl)cc3NC(=O)c3cccc(Cl)c3)CC2)n1 [3-Chloro-N-(5-chloro-2-{4-[2-(3,5-dimethyl-pyrazol-1-yl)-acetyl]-[1,4]diazepan-1-yl}-pyridin-3-yl)-benzamide]"
8,11.5 nM,"Cc1cc(C)n(CC(=O)N2CCN(c3ncc(Cl)cc3NC(=O)c3cccc(Cl)c3)CC2)n1 [3-Chloro-N-(5-chloro-2-{4-[2-(3,5-dimethyl-pyrazol-1-yl)-acetyl]-piperazin-1-yl}-pyridin-3-yl)-benzamide]"
9,11.5 nM,"Cc1cc(C)n(CC(=O)N2CCN(c3ccccc3C(=O)Nc3ccc(-c4ccccc4)nc3)CC2)n1 [2-{4-[2-(3,5-Dimethyl-pyrazol-1-yl)-acetyl]-piperazin-1-yl}-N-(6-phenyl-pyridin-3-yl)-benzamide]"
10,6.6 nM,"Cc1cc(C)n(CC(=O)N2CCN(c3ccccc3NC(=O)c3ccccc3)CC2)n1 [N-(2-{4-[2-(3,5-Dimethyl-pyrazol-1-yl)-acetyl]-piperazin-1-yl}-phenyl)-benzamide]"
11,7.2 nM,"Cc1cc(C)n(CC(=O)N2CCN(c3ccccc3C(=O)Nc3ccnc(Cl)c3)CC2)n1 [N-(2-Chloro-pyridin-4-yl)-2-{4-[2-(3,5-dimethyl-pyrazol-1-yl)-acetyl]-piperazin-1-yl}-benzamide]"
12,15 nM,"Cc1cc(C)n(CC(=O)N2CCN(c3ccc(Cl)cc3C(=O)Nc3nc4c(s3)CN(C)CC4)CC2)n1 [5-Chloro-2-{4-[2-(3,5-dimethyl-pyrazol-1-yl)-acetyl]-piperazin-1-yl}-N-(5-methyl-4,5,6,7-tetrahydro-thiazolo[5,4-c]pyridin-2-yl)-benzamide]"
13,14 nM,"Cc1cc(C)n(CC(=O)N2CCN(c3ccccc3C(=O)Nc3ccnc(N4CCN(C)CC4)c3)CC2)n1 [2-{4-[2-(3,5-Dimethyl-pyrazol-1-yl)-acetyl]-piperazin-1-yl}-N-[2-(4-methyl-piperazin-1-yl)-pyridin-4-yl]-benzamide]"
14,13 nM,"Cc1cc(C)n(CC(=O)N2CCN(c3ccccc3C(=O)Nc3ccc4cnccc4c3)CC2)n1 [2-{4-[2-(3,5-Dimethyl-pyrazol-1-yl)-acetyl]-piperazin-1-yl}-N-isoquinolin-6-yl-benzamide]"
15,15 nM,"Cc1cc(C)n(CC(=O)N2CCN(c3ccccc3NC(=O)c3ccc(Cl)nc3)CC2)n1 [6-Chloro-N-(2-{4-[2-(3,5-dimethyl-pyrazol-1-yl)-acetyl]-piperazin-1-yl}-phenyl)-nicotinamide]"
16,4.2 nM,COc1ccc(C(=O)NCC(=O)N2CCN(c3ccccc3C(=O)Nc3ccncc3)CC2)cc1F [3-Fluoro-4-methoxy-N-(2-oxo-2-{4-[2-(pyridin-4-ylcarbamoyl)-phenyl]-piperazin-1-yl}-ethyl)-benzamide]
17,5.9 nM,"COc1ccc(NC(=O)c2ccccc2N2CCN(C(=O)Cn3nc(C)cc3C)CC2)cn1 [2-{4-[2-(3,5-Dimethyl-pyrazol-1-yl)-acetyl]-piperazin-1-yl}-N-(6-methoxy-pyridin-3-yl)-benzamide]"
